One series has as its system cytochrome C and P 450. As to the kind of experiment: Cytochrome C and P450 activities in atherogenic-diet rats. In kind it is in vivo. The following applies: atherosclerosis induced by atherogenic diet in rats. The text has this:
During model-experiments of atherosclerosis induced by atherogenic diet in rats, the pathologic increase of cythochrome C and P 450 enzyme activities is to be observed. This is disadvantageous because these enhanced enzyme activities induce tissular lipid peroxidation, involving all of its well known untoward consequences. As the first step of this chain reaction superoxyde - anion radical is formed from molecular oxygen. Laitar however initiate further few radical reactions.

For series [1], the system named is hyperoxia (95% oxygen and 5% CO2). Nature of the series: Hyperoxia-inhibiting effect. The series is classed as in vivo, rats. The method, then: CFY rats with an average body weight of 250 g each, belonging to both sexes were kept in an atmosphere of 95% oxygen and 5% CO2. Three treatment groups were formed.
Group 2 (n=25): Hyperoxia was induced as described for Group 1, however, 20 mg/kg body weight/day i.v. Dexamethasone (steroid hormone preparation) was administered during the hyperoxia period. […] Autopsy and histological examinations were performed on the animals died and on the animals sacrificed on the 35th day.
Group 3 (n=25): Hyperoxia was induced as in the Groups mentioned above, but during the period of hyperoxia 65 mg/kg body weight of the compound according to Example 4 was administered i.v. The rate of death amounted to 4% (1 animal).

In series [2] the test system is TXB2 formation in human leukocyte homogenate. As to the kind of experiment: TXB2 formation from arachidonic acid in human leukocyte homogenate (RIA). In kind it is biochemical. The following applies: DMSO control 1.95 ± 0.31. As to the method:
The transformation of arachidonic acid to thromboxane B2 and leukotriene B4 in a human leukocyte homogenate was measured by means of the method published by Tetason, J. E. et al., Brit. J. Pharmacol., 1988 94:528-529, as follows: Fresh blood, from donors who had not ingested aspirin or other drugs for at least 14 days previously, was collected, with EDTA (1.2 mgml^-1) as anticoagulant; erythrocytes were sedimented by addition of 2% methyl cellulose (7.5 ml 100^-1 blood) and incubation for 40 minutes at 37° C. The supernatant containing leukocytes and platelets was removed, diluted two fold with sodium phosphate-buffered saline (0.9% NaCl, pH 7.2, 20 mM phosphate) and centrifuged for 10 minutes at 150 g. The supernatant, containing platelets, was removed and the leukocyte pellet resuspended in 50 ml of ice-cold 0.82% NH4 Cl containing 5 mM KCl (brought to pH 7.4 with 4.4% NaHCO3). This procedure lysed any remaining erythrocytes during 10 minutes incubation on ice. The leukocyte suspension was then centrifuged again (10 minutes, 150 g) and the pellet resuspended in 25 ml sodium phosphate buffer (50 mM, pH 7.0) containing EDTA (1 mM). […]
DMSO was added. […] Reaction products, TXB2 and LTB4, were measured by specific radioimmunoassay (RIA) as published by Salmon, J. A. Prostaglandins, 1978 15: 383-397; and Salmon, J. A. et al., Prostaglandins, 1982, 24:225-235. […]

Another series deals with Erlich ascites tumor. As to the kind of experiment: Tumor-inhibiting effect on the Erlich ascites tumor. The series is classed as in vivo, mice. The method, then:
A daily oral dose of 150 mg/kg of body-weight of the compound prepared in Example 1 was administered to LATI-inbred CFLP male mice weighing 20 to 22 g each for 5 days, then 2×10^6 of Erlich ascites tumour cells were implanted under sterile conditions. Thereafter, the drug-treatment was continued and an examination was carried out on the 16th day following the implantation. An 80% inhibition was observed on the 17th day. The percentage of inhabitation was determined as described by Zs. Pollak in the dissertation entitled "Development of a Radiosensitizing Antioxidant and Use Thereof in the Oncological Practice" pages 44 to 45 and 76 to 82, as cited above.

Another series has as its system gastric mucosa. As to the kind of experiment: Protection of the gastric mucosa against ethanol. The following applies: anhydrous ethanol + 100 mg/kg by gastric tube; ethanol only 21±0.31%. The series is classed as in vivo, rats. As to the method: The protection of the gastric mucosa against the effect of ethanol was investigated. Ten CFY male rats weighing 200 to 220 g each were starved for 18 hours while allowing them to consume water ad libitum. Then, a dose of 50 or 100 mg/kg of body weight of the compound prepared in Example 1 was administered in such a way that the active agent had previously homogenized in an 1% aqueous methylcellulose solution for 1 minute. The substance was administered through a gastric tube. After 30 minutes, 1 ml of anhydrous ethanol each was orally given to the animals. Five minutes later the animals were decapitated under a general anaesthesia, their stomachs were removed, opened along the large curvature and washed with water. Thereafter the stomachs were stretched out and photographed. The alterations found on the gastric mucosa were observed by planimetry. The lesions were given as percentage of the whole surface.

The subject of a further series is Wistar rats. Nature of the series: Acute toxicity study and determination of LD50. In kind it is in vivo. As to the method:
(§1) The Example was carried out in Wistar rats (Lati, Budapest) of both sexes weighing 150-160 g each. Doses of L90 were measured by an analytical balance, for each animal and suspended in 2 ml of paraffine oil while mixing at 60° C. Suspension was then cooled to room temperature and administered through a gastric tube. Animals were fed with standard rat feed (Lati, Budapest) and received water ad libitum. They were kept at a room temperature of 23 to 25° C. The relative humidity of room air amounted to 50-70 percent. Three study groups of animals were formed.
(§2) The animals received a single dose of L90 amounting to 1 g/kg body weight.
(§3) The animals received a single dose of L90 amounting to 5 g/kg body weight.
(§4) The animals received a single dose of 2 ml of paraffine oil (control group).
(§5) Animals were carefully observed on 10 subsequent days, after treatment. On day 11, the animals were sacrificed in general anesthesia. Autopsy of all animals was performed followed by the macroscopic examination of all organs.

The nature of series [3]: Acute toxicity study and determination of LD50. The following applies: rat, in vivo; oral, Wistar rats of both sexes. In kind it is in vivo. The method, then: as §1, §2, §3, §4, §5
Series [4] has as its system extrinsic bronchial asthma. Nature of the series: Investigation of MTDQ in vivo in steroid-dependent asthma patients. Details: species or system human. The method, then:
Four women and two men (with an average age of 41 years); between 17 and 56 years participated in this study, who suffered from extrinsic bronchial asthma, and had earlier been treated with at least 20 mg/day of prednisolone (11,17,21-trihydroxypregn-4-ene-3,20-dione) or with an equivalent steroidal hormone since 2 to 15 years of age. During the experimental period, the patients were kept on the treatment commonly used for bronchial asthma, except steroidal hormones.
On admission, their respiratory function characteristics were as follows:
Their sputum became more dilute and easy to eliminate. On auscultation, a soft vesicular respiration was again observed over their lungs. The X-ray picture of the lungs was in agreement with the clinical improvement.
On the fifteenth day of treatment, the respiratory functions were as follows:
The experiment described in Example 10 was repeated, except that daily 300 mg of allopurinol (Milurit®, EGIS Pharmaceutical Works) were daily administered simultaneously with the start of the MTDQ administration. […] In the case of a prolonged treatment, the daily amount of MTDQ could be decreased from 2500 mg to 1000-1200 mg by using this combination.

Counter-ions that a name gives are not always drawn. Where only a bound is given, the exact number is not on record here.

The LD50 is the dose at which mortality reaches 50%.

For `CC1=CC(C)(C)Nc2ccccc21` [2,2,4-trimethyl-1,2-dihydroquinoline], the “Normalization of increased Cytochrome C and P450 activities” value in the series on cytochrome C and P 450 is “did not exert this effect either”.
In the case of `CC1(C)C=C(CS(=O)(=O)O)c2ccccc2N1` [2,2-dimethyl-4-methane-sulfonic acid salt-1,2-dihydroquinoline], the “Normalization of increased Cytochrome C and P450 activities” value with cytochrome C and P 450 was “did not exert this effect either”.
For the molecule `NC(=O)c1nc[nH]c1N` [4-amino-5-imidozolcarboxidamide], the “Normalization of increased Cytochrome C and P450 activities” value in the series with cytochrome C and P 450 is recorded as “did not exert this effects”.
In the case of `Oc1cc(O)c2c(c1)O[C@H](c1ccc(O)c(O)c1)[C@@H](O)C2` [(+) --Cyanidol], the “Normalization of increased Cytochrome C and P450 activities” value in the series on cytochrome C and P 450 is on record as “did not exert this effects”.
Consider `CC(C)(S)[C@@H](N)C(=O)O` [D-Pencillamino], for which, in the series on cytochrome C and P 450, the “Normalization of increased Cytochrome C and P450 activities” value is given as “did not exert this effects”.
Regarding `C[C@@H]1C[C@H]2[C@@H]3CCC4=CC(=O)C=C[C@]4(C)[C@@]3(F)[C@@H](O)C[C@]2(C)[C@@]1(O)C(=O)CO` [Dexamethasone], the Rate of survival entry in series [1] (20 mg/kg/day i.v. during hyperoxia) is “did not improve”. Further, in series [1] (20 mg/kg/day i.v., compared to physiological parameters), the “PGF1C and TXB2 concentrations” value is “significantly lower”. In addition, the “Pathological lesions at autopsy and histology” value in series [1] (20 mg/kg/day i.v., compared with Group 1) was “number and severity of the pathological lesions were found less than in Group 1”.
On to `CC(=O)C(c1ccc2c(c1)C(C)=CC(C)(C)N2)c1ccc2c(c1)C(C)=CC(C)(C)N2` [Example 1, 6,6'-acetylmethine-bis(2,2,4-trimethyl-1,2-dihydroquinoline)], for which the TXB2 in series [2] (20/μM compound) is recorded as 0.68 ± 0.14; in series [2] (100/μM compound) it was 0.53 ± 0.08. In the series with Erlich ascites tumor (150 mg/kg oral daily, CFLP male mice, 17th day), the Tumor inhibition was found to be 80%. The Ascites ml. in the series on Erlich ascites tumor (150 mg/kg, control 15.06 + 2.85) is listed as 3.95 + 0.62 ml. Moreover, the number of cells in the series with Erlich ascites tumor (150 mg/kg, control 96.5 × 10^7 /ml) amounted to 7.33e+07 mL⁻¹. Moreover, the “Gastric mucosa lesions as percentage of the whole surface” value with gastric mucosa is 4.2±0.51%. Besides, the Survival and observations entry in the series on Wistar rats (single oral dose 1 g/kg, day 11) is on record as “all rats were alive”. Moreover, in the series with Wistar rats (single oral dose 5 g/kg, n=8, 10 days of observation), the Mortality entry is “Two rats belonging to Group 2 died on day 8”. In addition, the 50% lethal dose (LD50) at 240 h in series [3] is greater than 5000 mg/kg.
As to `CC(=O)C(c1ccc2c(c1)C(CS(=O)(=O)O)=CC(C)(C)N2)c1ccc2c(c1)C(CS(=O)(=O)O)=CC(C)(C)N2` [Example 4, sodium salt of 6,6'-acetylmethine-bis(2,2-dimethyl-1,2-dihydroquinoline-4-methanesulfonicacid)], the Rate of death in series [1] (65 mg/kg i.v. during hyperoxia, untreated 50% died) came out at 4%. Besides, the “Pathological lesions at autopsy and histology” value in series [1] (65 mg/kg i.v., animals sacrificed on 35th day) is reported as “no pathological lesions were detected”.
Regarding `CC1=CC(C)(C)Nc2ccc(Cc3ccc4c(c3)C(C)=CC(C)(C)N4)cc21` [MTDQ, 6,6'-methylene-bis(2,2,4-trimethyl-1,2-dihydroquinoline)], the “Omission of steroidal hormone” value in series [4] (MTDQ combined with 300 mg allopurinol daily) was “the steroidal hormone could immediately be omitted”. Besides, the “Daily amount of MTDQ needed in prolonged treatment” value in series [4] (combined with 300 mg allopurinol daily, decreased from 2500 mg) fell in the range of 1000 to 1200 mg. Moreover, the “Partial oxygen pressure in the arterial blood” value in series [4] (fifteenth day of treatment, MTDQ 25 mg/kg orally daily, steroid stopped on day 4) is 10.9±0.45 kPa. Besides, in series [4] (fifteenth day of treatment, MTDQ 25 mg/kg orally daily, normal value 2.5 to 2.8), the Forced expiratory volume amounted to 2.06 ± 0.8 L. Besides, the Forced vital capacity in series [4] (fifteenth day of treatment, MTDQ 25 mg/kg orally daily, normal value 3.5 to 4) came out at 3.78 ± 0.33 L. The Clinical improvement result in series [4] (fifth day, MTDQ 25 mg/kg orally daily) was “the patients became attack-free”.
`O=C1O[C@H]([C@@H](O)CO)C(O)=C1O` [Vitamin C]: the “Normalization of increased Cytochrome C and P450 activities” value with cytochrome C and P 450 was “did not exert this effects”.
The same measure, in the same setting: next, Vitamin A: “did not exert this effects”.

These data come from patent US5202338A, “Dihydroquinoline derivatives, pharmaceutical compositions and methods of use of dihydroquinoline derivatives as modulators of the arachidonic acid cascade” (priority 1990, dated 1993).
